# Measurements published in patent US8648113B2, “Mixture and compounds from mycelia of Antrodia camphorata and use thereof” (Simpson Biotech Co., Ltd., priority 2004, dated 2014).
# “And” between values parts separate entries of the source, which are not always exact repeats. Equal entries are not always repeated. Where two headings read alike, the source gives them in different places.
# Assays:
# [1] = test system: SW620: human colon adenocarcinoma; experiment: Tumor assay of ACM, MTT method, SW620; assay type: cell-based; conditions: 4 days
# Excerpt: (§1) Tumor Assay of ACM (Antrodia camphorata Mycelia Powder) A. Cell Line • Adherent Cell • MCF-7: human breast carcinoma • HT-29: human colon adenocarcinoma • KATO III: human stomach carcinoma • SW480: human colon adenocarcinoma • SW620: human colon adenocarcinoma • HepG2: human liver carcinoma • Suspension Cell • EL4: mice lymphoma B. Samples • Compound 1, Compound 3, ACM EtOH Extract, ACM H2O Extract C. Assay Method • Calculate ED50 (50% inhibition of effective dose) • Adherent cell: MTT (methyl thiazolyl tetrazolium) method for MCF-7, HT-29, KATO III, SW480, HepG2, cells are determined at 3 days. SW620 at 4 days • Suspension cell: Cell count method; EL4 cells count at 5 days D. Result Calculation: y=m Ln(x)+b
# (§2) Use value of X (10, 30, 50 ppm) and Y to get correlation curve y=−0.2643 Ln(x)+1.5321 ED50=exp[0.97/2−1.5321/(−0.2643)] Sample Preparation and Sample Description A. ACM (Antrodia Camphorata Mycelia Powder) H2O Extract 1. Add 1 g of ACM into 40 ml of RO H2O in a 250 ml beaker, put the beaker in ultrasonic water bath for 20 min at room temperature 2. Stir at 45° C. water bath for 45 min 3. Place the beaker in ultrasonic water bath for another 20 min 4. Centrifuge the sample at 3000 rpm for 15 min 5. Collect supernatant and perform serial dilutions with media B. Determination of Sample Concentration 1. […] Read at OD545 on Elisa reader Cell Count Method (EL4 Cell Line) 1. […]
# EL4: mice lymphoma = experiment: Tumor assay of ACM, cell count method, EL4; assay type: cell-based; conditions: 5 days
# Excerpt: as §1, §2
# [2] = test system: KATO III: human stomach carcinoma; experiment: Tumor assay of ACM, MTT method, KATO III; assay type: cell-based; conditions: 3 days
# Excerpt: as §1, §2
# [3] = test system: LLC (Lewis lung carcinoma) cell line; experiment: Cytotoxic assay, in vitro LLC tumor cell assay (SRB method); conditions: for 50% Growth Inhibition (ED50): SRB method
# [4] = test system: HepG2: human liver carcinoma; experiment: Tumor assay of ACM, MTT method, HepG2; assay type: cell-based; conditions: 3 days
# Excerpt: as §1, §2
# [5] = test system: HT-29: human colon adenocarcinoma; experiment: Tumor assay of ACM, MTT method, HT-29; assay type: cell-based; conditions: 3 days
# Excerpt: as §1, §2
# [6] = test system: MCF-7: human breast carcinoma; experiment: Tumor assay of ACM, MTT method, MCF-7; assay type: cell-based; conditions: 3 days
# Excerpt: as §1, §2
# [7] = test system: LLC (Lewis lung carcinoma) cell line
# [8] = test system: ICR derived male mice, carbon tetrachloride induced hepatic injury; experiment: Hepatic Injury, Carbon Tetrachloride, in Mice; assay type: in vivo, mouse; conditions: for ALT, group mean (X) / AST, group mean (X) / ALT, individual animal / AST, individual animal: CCl4-challenged ICR mice; for ALT, group mean (X) / AST, group mean (X): mean of 5; for ALT, individual animal / AST, individual animal: single animals N 1-5, 24 h after CCl4; for ALT Dec. % / AST Dec. %: decrease relative to vehicle group, brackets = 30% or greater
# Procedure: Nine groups of ICR derived male mice (weighing 22±2 g) of 5 each were used. Each animals was challenged with a single dose of carbon tetrachloride (CCl4, 0.1 ml/kg in 50% olive oil, PO). […] The animals were sacrificed 24 hours after CCl4. Alanine aminotransferase (ALT) and Aspartate aminotransferase (AST) levels were measured by optimized UV method using a HITACHI automatic analyzer (model 7050). A reduction of ALT or AST levels by 30 percent or greater (30%), relative to the vehicle group, indicating significant protection from hepatic injury.
# The test substance of ACM at doses 300 and 1000 mg/kg and compound 3 of the invention at doses 30, 100 and 300 mg/kg were administered orally to test animals 0.5 hour before and 4, 8 hours after CCl4 challenge. […] The degree of hepatic injury was determined by increase in serum alanine aminotransferase (ALT) and aspartate aminotransferase (AST) levels relative to the vehicle treated animals. ACM at 1000 mg/kg×3 and compound 3 of the invention at 300 mg/kg×3 caused a significant reduction of ALT (46% and 41%) and AST (36% and 33%) relative to the vehicle treated animals.
# [9] = test system: SW480: human colon adenocarcinoma; experiment: Tumor assay of ACM, MTT method, SW480; assay type: cell-based; conditions: 3 days
# Excerpt: as §1, §2
# [10] = test system: spontaneously hypertensive rats (SHR); conditions: 0.1 mg/kg PO, Ave. of 3 rats (Tables 7 and 9: two experiments)
# Procedure: Blood pressure and heart rate were recorded indirectly by tail cuff method in a temperature controlled environment (32±1° C.) before (0 time) and 1, 2 and 4 hours after oral administration of test substance or vehicle. A reduction in systolic pressure by 10 percent or more (>10%), or decrease in heart rate by 20 percent or more (≧20%), at each measured time interval relative to 0 time, is considered significant.
# Blood pressure was recorded indirectly vial tail cuff at 0 time (before) and 1, 2 and 4 hours after oral administration of vehicle or test substance. A reduction in blood pressure by 10 percent or more (10%), or decrease in heart rate by 20 percent or more (≧20%) at each measurement time point relative to 0 time, shown in parenthesis, is considered significant.
smiles,measurement,setting,value
"CC(C)=CCOc1ccc(C2=C(CC(C)C)C(=O)OC2=O)cc1 [Compound 1, 3-Isobutyl-4-[4-(3-methyl-2-butenyloxy)phenyl]furan-2,5-dione]",ED50,[1],15 ppm
same,ED50,EL4: mice lymphoma,3.5 ppm
same,ED50,[2],38 ppm
same,cytotoxic activity (in words),[3],no cytotoxic activity
same,50% Growth Inhibition (ED50),[3],>20 µg/mL
same,ED50,[4],21 ppm
same,ED50,[5],52 ppm
same,ED50,[6],6 ppm
"CC(C)=CCOc1ccc([C@H]2C(=O)N(O)C(=O)[C@@H]2CC(C)C)cc1 (relative stereo) [Compound 4, 3R*,4S*-1-Hydroxy-3-isobutyl-4-[4-(3-methyl-2-butenyloxy)phenyl]pyrrolidine-2,5-dione]",cytotoxic activity (in words),[7],no cytotoxic activity
same,50% Growth Inhibition (ED50),[3],>10 µg/mL
"CC(C)=CCOc1ccc(C2=C(CC(C)C)C(=O)N(O)C2=O)cc1 [Compound 3, 3-Isobutyl-4-[4-(3-methyl-2-butenyloxy)phenyl]-1H-pyrrol-1-ol-2,5-dione]",ED50,[1],27 ppm
same,reduction of ALT relative to the vehicle treated animals,"[8]; CCl4 mice, 300 mg/kg×3 PO",41%
same,reduction of AST relative to the vehicle treated animals,"[8]; CCl4 mice, 300 mg/kg×3 PO",33%
same,"ALT, group mean (X)",[8]; PO 30 mg/kg × 3,3360 U/L
same,"AST, group mean (X)",[8]; PO 30 mg/kg × 3,1962 U/L
same,"ALT, individual animal",[8]; PO 30 mg/kg × 3,4296 U/L and 3696 U/L and 2152 U/L and 2400 U/L and 4256 U/L
same,"AST, individual animal",[8]; PO 30 mg/kg × 3,2136 U/L and 2288 U/L and 1096 U/L and 1792 U/L and 2496 U/L
same,ALT Dec. %,[8]; PO 30 mg/kg × 3,−1%
same,AST Dec. %,[8]; PO 30 mg/kg × 3,−16%
same,"ALT, group mean (X)",[8]; PO 100 mg/kg × 3,3342 U/L
same,"AST, group mean (X)",[8]; PO 100 mg/kg × 3,1984 U/L
same,"ALT, individual animal",[8]; PO 100 mg/kg × 3,3200 U/L and 4576 U/L and 2512 U/L and 2728 U/L and 3696 U/L
same,"AST, individual animal",[8]; PO 100 mg/kg × 3,2256 U/L and 2976 U/L and 1536 U/L and 1552 U/L and 1600 U/L
same,ALT Dec. %,[8]; PO 100 mg/kg × 3,0%
same,AST Dec. %,[8]; PO 100 mg/kg × 3,−17%
same,"ALT, group mean (X)",[8]; PO 300 mg/kg × 3,1966 U/L
same,"AST, group mean (X)",[8]; PO 300 mg/kg × 3,1130 U/L
same,"ALT, individual animal",[8]; PO 300 mg/kg × 3,1368 U/L and 1576 U/L and 1440 U/L and 2728 U/L and 2720 U/L
same,"AST, individual animal",[8]; PO 300 mg/kg × 3,776 U/L and 896 U/L (2×) and 1352 U/L and 1728 U/L
same,ALT Dec. %,[8]; PO 300 mg/kg × 3,(41) %
same,AST Dec. %,[8]; PO 300 mg/kg × 3,(33) %
same,ED50,[9],20 ppm
same,ED50,EL4: mice lymphoma,2.6 ppm
same,ED50,[2],69 ppm
same,cytotoxic activity (in words),[3],cytotoxic
same,50% Growth Inhibition (ED50),[3],7.5 µg/mL
same,ED50,[4],35 ppm
same,ED50,[5],42 ppm
same,ED50,[6],0.02 ppm
Clc1cccc(Cl)c1N=C1NCCN1 [Clonidine],"Heart Rate % Control (from 0 times), 2 Hours",[10],90% and 86%
same,"Heart Rate % Control (from 0 times), 4 Hours",[10],98% and 102%
